The record followed here is EPA's ToxRefDB 2.

Data set [1] deals with rat. The settings on record: Multigenerational reproductive toxicity study, sprague dawley, Oral, Feed, dose end: 2 generation.
The test system of data set [2] is rat. The settings on record: Prenatal developmental toxicity study, wistar, Oral, Gavage/Intubation, dose end: 16 GD.
For data set [3], the system named is dog. The note with it: Chronic toxicity; beagle; Oral; Feed; dose end: 104 week; group: systemic; systemic / hematology / [other] / [other] + systemic / hematology / eosinophils / eosinophils + systemic / hematology / erythroblast / ….
Data set [4] concerns dog. The note with it: Subchronic oral toxicity in nonrodent, beagle, Feed, dose end: 90 day.
The subject of data set [5] is rat. The settings on record: Sub-acute repeat dose toxicity, sprague dawley, Oral, Gavage/Intubation, dose end: 28 day, group: systemic.
Data set [6] deals with dog. The note with it: Sub-acute repeat dose toxicity; beagle; Oral; Capsule; dose end: 1 month; group: systemic; systemic / in life observation / clinical signs / defecation (diarrhea) + systemic / in life observation / clinical signs / emesis + ….
The test system of data set [7] is rat. The note with it: Prenatal developmental toxicity study, sprague dawley, Oral, Gavage/Intubation, dose end: 15 GD.
In data set [8] the test system is rat. The settings on record: Subchronic oral toxicity in rodents, fischer, Feed, dose end: 13 week, group: systemic, systemic / clinical chemistry / thyroxine (t4) / thyroxine (t4), total + systemic / in life observation / body weight / body weight + ….
[9] abbreviates: group: offspring, systemic / in life observation / body weight / offspring (pup) weight.
The mark [10] stands for this setting: group: parental, systemic / in life observation / body weight / body weight gain + systemic / in life observation / food consumption / food consumption + ….
[11] abbreviates: group: developmental, developmental / developmental malformation / bone / [other] + developmental / developmental malformation / bone / bipartite ossification + ….
The mark [12] stands for this setting: group: maternal, systemic / in life observation / body weight / body weight gain + systemic / in life observation / food consumption / food consumption.
Where [13] appears, read: group: cholinesterase, cholinesterase / cholinesterase / cholinesterase / plasma cholinesterase (che) + cholinesterase / cholinesterase / cholinesterase / ….
[14] abbreviates: group: systemic, systemic / hematology / [other] / [other] + systemic / hematology / erythroblast / erythroblast + systemic / hematology / lymphocyte / ….
[15] abbreviates: systemic / clinical chemistry / glucose / glucose + systemic / clinical chemistry / cholesterol / cholesterol.
The mark [16] stands for this setting: systemic / clinical chemistry / glucose / glucose + systemic / hematology / platelet / platelet + systemic / pathology microscopic / liver….
Setting [17] is: group: developmental, developmental / developmental malformation / bone / full supernumerary + developmental / developmental malformation / bone / incomplete ….
[18] abbreviates: group: maternal, systemic / hematology / erythrocyte (rbc) count differential / erythrocyte (rbc) + systemic / hematology / reticulocyte / reticulocyte + ….

In general, LOAEL refers to the lowest dose or exposure tested at which an adverse effect was seen. As a reminder, the NOAEL is the highest tested level that showed no adverse finding. Consider `Cc1nc(N(C)C)nc(OC(=O)N(C)C)c1C` [Pirimicarb], for which the LEL in the data set with rat [1] (setting [9]) amounted to 90.1 mg/kg/day; in the data set with rat [1] (setting [10]), 81.8 mg/kg/day; with rat [2] (setting [11]), 75 mg/kg/day; with rat [2] (setting [12]), 75 mg/kg/day; in the data set with dog [3] it was 4 mg/kg/day; in the data set with dog [4] (setting [13]), 10 mg/kg/day. In addition, the LEL in the data set on dog [4] (setting [14]) came out at 4 mg/kg/day. The lowest observed adverse effect level (LOAEL) with rat [1] (setting [9]) was determined as 90.1 mg/kg/day; with rat [1] (setting [10]) it was 81.8 mg/kg/day; in the data set with rat [2] (setting [11]) it was 75 mg/kg/day; in the data set on rat [2] (setting [12]), 75 mg/kg/day; with dog [3] it was 4 mg/kg/day; in the data set on dog [4] (setting [13]) it was 10 mg/kg/day. The LOAEL in the data set on dog [4] (setting [14]) stood at 4 mg/kg/day. Besides, the NEL is 23.2 mg/kg/day in the data set with rat [1] (setting [9]); 21.7 mg/kg/day in the data set on rat [1] (setting [10]); 25 mg/kg/day in the data set on rat [2] (setting [11]); 25 mg/kg/day in the data set with rat [2] (setting [12]); 1.8 mg/kg/day in the data set on dog [3]; 4 mg/kg/day with dog [4] (setting [13]). Also, the NEL in the data set with dog [4] (setting [14]) came to 1.8 mg/kg/day. The no-observed-adverse-effect level (NOAEL) with rat [1] (setting [9]) worked out at 23.2 mg/kg/day; in the data set with rat [1] (setting [10]), 21.7 mg/kg/day; in the data set on rat [2] (setting [11]) it was 25 mg/kg/day; with rat [2] (setting [12]), 25 mg/kg/day; in the data set with dog [3] it was 1.8 mg/kg/day; in the data set with dog [4] (setting [13]), 4 mg/kg/day. The NOAEL in the data set with dog [4] (setting [14]) came to 1.8 mg/kg/day.

`COc1cc(C(C)C)c2c(c1)S(=O)(=O)N(COc1cc(=O)n3cccc(OCCN4CCCCC4)c3n1)C2=O`: in the data set on rat [5] (setting [15]), the LEL stood at 30 mg/kg/day and the NEL was less than 30 mg/kg/day. Further, in the data set on rat [5] (setting [16]), the LOAEL is 100 mg/kg/day and the NOAEL stood at 30 mg/kg/day. In addition, in the data set with dog [6], the LEL was determined as 10 mg/kg/day, the lowest-observed-adverse-effect level (LOAEL) is greater than 100 mg/kg/day, the NEL was less than 10 mg/kg/day and the no-observed-adverse-effect level (NOAEL) was no less than 100 mg/kg/day.

Consider `CCCCOCCOC(=O)COc1ccc(Cl)cc1Cl` [2,4-D-Butotyl], for which, in the data set on rat [7] (setting [17]), the LEL was 185 mg/kg/day, the LOAEL was 185 mg/kg/day, the NEL is 75 mg/kg/day and the NOAEL is 75 mg/kg/day. Moreover, in the data set on rat [7] (setting [18]), the LEL was 185 mg/kg/day, the lowest-observed-adverse-effect level (LOAEL) was 185 mg/kg/day, the NEL is 75 mg/kg/day and the NOAEL was found to be 75 mg/kg/day. In addition, in the data set on rat [8], the LEL is 145 mg/kg/day, the LOAEL worked out at 145 mg/kg/day, the NEL amounted to 22 mg/kg/day and the NOAEL is 22 mg/kg/day.
